Test results: patent publication US20230381312A1, “REDIRECTING GLUCOSE METABOLISM TO LIMIT STRESS AND IMPROVE ADOPTIVE CELL THERAPY” (University of Pittsburgh - Of the Commonwealth System of …, priority 2020, published 2023)

How the values were obtained:
human T cells = assay: Metabolic flux rate experiments (OCR, SRC) in human T cells expanded in DCA; assay type: cell-based
Procedure: Metabolic flux rate experiments were performed to determine whether human T cells expanded in DCA show improved mitochondrial respiratory capacity. This example identically replicates the methods described in Example 3, except human T cells were used (derived from human healthy donor blood).
Metabolic flux rate measurements were performed using the CellDoctor™ device and methods described above. The CellDoctor™ device was configured to measure oxygen consumption rate (OCR) and extracellular acidification rate (ECAR), corresponding to proton flux, of cells that are adherent to the bottom of 24 well microplates. As described above, flux rate experiments were performed in a human T cell line expanded in either 5 mM DCA or a control group without DCA. FIG. 6A illustrates the use of an activation step (CD3/CD28) for 48 hours and a culturing step (Ctrl/DCA) for 10 days as described in Example 2.

[1] = tested on: tumor-infiltrating T cells; assay: Signaling analysis of patient tumor-infiltrating T cells expanded with DCA (PD-1, Tim-3, IFN-gamma, TNF-alpha); assay type: cell-based, human; details: patient TIL expanded with DCA, FIG. 7C
Procedure: (§1) This method included obtaining a sample of tumor from a patient suffering from metastatic melanoma, making a single cell suspension, and expanding the T cells in a cell culture medium with IL-2 present in a concentration of 6000 IU/mL+/−DCA in addition to anti-CD3/anti-CD28 antibodies for a period of 10 days.
Signaling analysis were performed as described above.

EGFR BBz CAR-T cells = assay: Metabolic flux rate experiments (OCR, ECAR) in EGFR BBz CAR-T cells expanded with DCA; assay type: cell-based; details: for OCR analysis (metabolic phenotype): FIG. 9A; for ECAR analysis (metabolic phenotype): FIG. 9B
Procedure: Immunodeficient mice with a solid tumor (unmodified A549) were treated with adoptively transferred EGFR BBz CAR T cells that were expanded either in the presence or absence of DCA.
FIGS. 9A-9C depict metabolic flux rate experiments and flow cytometry measurements, showing that DCA can metabolically enhance a solid-tumor targeted CAR.
The UTD control was prepared as described above. Metabolic flux rate experiments and T cell preparation were performed as described above.

T cells [2] = assay: T cell survival and BCL2 expression after 10 days expansion in DCA (CellTrace Violet, flow cytometry); assay type: cell-based
Procedure: The impact of a PDHK1 inhibitor (DCA) on T cell survival was assessed by measuring expression of anti-apoptotic BLC2. […] The T cells were activated and expanded as described in Example 1, except the labeled PBMCs were cultured in media containing IL-2 for 48 hours, and the T cells were cultured in DCA or control conditions for 10 days. Experimental expansion conditions included culturing in 5 mM DCA or 10 mM DCA. Control conditions included 5 mM of glycolysis inhibitor 2-deoxyglucose (2DG), low glucose media, or PBS. The impact of DCA on T cell survival was assayed by evaluating CellTrace® Violet dilution with flow cytometry. Fresh X-VIVO®-15-based culture medium containing IL-2 and DCA or 2DG was added to the T cell cultures every two to three days for a total of ten days to permit outgrowth and expansion of the T cells.
A pairwise T test was performed on all day ten cultures (each concentration of DCA was compared to 0 mM DCA: *p<0.05, **p<0.01).

[3] = tested on: human anti-CD19 CAR-T cells; assay: Metabolic flux rate experiments in human anti-CD19 CAR-T cells generated with DCA; assay type: cell-based; details: 5 mM DCA relative to hCD19 CAR, FIG. 8B
Procedure: On the first day (“day 0”), 1) fresh or frozen peripheral blood mononuclear (PBMCs) are seeded at 10×10^6 cells/10 mL in a T25 culture flask in T Cell Growth Media (TCGM), and 2) T cell stimulation cocktail is added to a final concentration of 50 ng/mL anti-CD3, 50 ng/mL anti-CD28, and 250 IU/mL IL-2. […] On day 3, 5) lentiviral supernatant is removed, and 6) cells are fed with new media to a concentration of 3×10^5 cells/mL and 5 mM DCA. On day 4, 7) a transfer of 5×10^6 cells/condition is made to G-Rex® 6 multi-well plates, filling TCGM+5 mM DCA to a volume of 100 mL/well. […] On day 10, 9) cells are frozen down to a concentration of 100×10^6 cells/mL. Standard T Cell Growth Media includes: 930 mL X-VIVO®-15 cell medium, 50 ml Human AB Serum, 10 ml 100× GlutaMAX® supplement, and 10 mL 1M HEPES.
FMC63 (human CD19 targeted CAR) human T cells were generated in the presence or absence of DCA. These cells were used to treat mice bearing A549 lung cancer tumors that were engineered to express hCD19.
Controls were prepared and human anti-CD19 CAR-T cells were cultured as described above. Metabolic flux rate experiments measuring OCR were also performed as described above.

T cells [4] = assay: Cytokine synthesis on restimulation after switch to low or high nutrient conditions; assay type: cell-based
Excerpt: FIG. 15A is a schematic of the experimental protocol for FIGS. 15B and 15C.

[5] = tested on: tumor-infiltrating T cells; assay: Metabolic flux rate experiment (OCR) in tumor-infiltrating T cells of melanoma patients expanded in vitro with DCA; assay type: cell-based, human; details: patient TIL expanded 10 days, FIG. 7B
Excerpt: Patient samples and PBMC samples were obtained from melanoma patients who were enrolled on institutional review board approved protocols. Cells from 5 different patients were used. PBMC were cryopreserved in 90% FBS plus 10% DMSO (Sigma, St. Louis. MO).
as §1
Metabolic flux rate experiments measuring OCR were also performed as described above.

T cells [6] = assay: Mitochondrial mass by MitoTracker FM in T cells cultured in DCA; assay type: cell-based, mouse; details: after culture in 5 mM DCA, FIG. 4E
T cells [7] = assay: Metabolic flux rate experiments (OCR, ECAR) in T cells expanded in DCA; assay type: cell-based, mouse
Excerpt: The methods provided herein can include measurement of plural extracellular solutes and adjacent living cells disposed, for example, in a well of a multiwell microplate.
This apparatus can include an array of submersible sensors that enable rapid coordinated sensor stabilization within multiple cell-containing wells. It also includes compound storage and delivery apparatus, a pneumatic multiplexer, a structure for adding fluids to subsets or all of the multiple wells simultaneously, and a sensor structure permitting non-destructive measurement of the effect of addition of exogenous fluid to the respective wells, in combination with the ability to make and repeat measurements rapidly. Furthermore, the apparatus is designed to exploit a cartridge structure which permits repeated use of the apparatus for disparate cellular assays without requiring intermediate cleaning, and while eliminating the possibility of cross contamination between tests.
In use, the first step in a measurement sequence with the Seahorse XF instrument is the exchange of cell media to a type containing nearly no bicarbonate or other pH buffer in order to maximize the pH change caused by cellular proton flux.
Next, measurement probes fitted with an optical oxygen and pH sensor were placed in each well, and were raised and lowered to mix the cell media for approximately five minutes. Third, each probe was lowered into the cell media to stop at a precise point above the cells such that approximately 25 μL of media was sequestered in a way that impeded the diffusion of oxygen molecules and protons to the larger volume of media in the well. Fourth, a series of optical measurements of the two sensors on the probe bottom (in contact with the small volume of media above the cells) were made at intervals of 8 seconds and for a period of five minutes. Typically, the dissolved oxygen level decreased by approximately 10% and the pH decreased by approximately 0.1 units. A simple linear fit to the rate of change of oxygen and pH were used to determine the OCR and ECAR for each well. […]

[8] = 5 mM DCA relative to UTD control
[9] = 10 mM DCA relative to UTD control

For `O=C(O)C(Cl)Cl` [DCA, dichloroacetic acid], the “Spare Respiratory Capacity (SRC, OCRmax-OCRbasal)” value (human T cells; human T cells expanded in 5 mM DCA versus control, FIG. 6D) was “at least 60”, the “increase in OCR over baseline” value (human T cells; human T cells expanded in 5 mM DCA, FIG. 6C) was “at least 20 pmol/min” and the OCR over time (human T cells; human T cells, CD3/CD28 48 hours then 5 mM DCA 10 days vs control, FIG. 6B) was “dramatic increase”. For the same compound, the “cytokine production (IFN-gamma and TNF-alpha)” value [1] was “increase in cytokine production”, the “ratio of PD-1 negative T cells to PD-1 positive T cells” value [1] was “increasing ratio” and the “ratio of Tim-3 negative T cells to Tim-3 positive T cells” value [1] was “increasing ratio”. For the same compound, the “OCR analysis (metabolic phenotype)” value (EGFR BBz CAR-T cells; [8]) was “superior metabolic phenotype”, the “ECAR analysis (metabolic phenotype)” value (EGFR BBz CAR-T cells; [8]) was “superior metabolic phenotype” and the “OCR analysis (metabolic phenotype)” value (EGFR BBz CAR-T cells; [9]) was “superior metabolic phenotype”. The “ECAR analysis (metabolic phenotype)” value (EGFR BBz CAR-T cells; [9]) was “superior metabolic phenotype”, the T cell survival (T cells [2]; T cells cultured in 5 mM or 10 mM DCA for 10 days vs 0 mM DCA) was “significantly increased” and the “expression of the anti-apoptotic factor BCL2” value (T cells [2]; T cells cultured in DCA for 10 days, FIG. 3) was “enhanced expression”. The “OCR at serial time points (metabolic phenotype)” value (shortened to “OCR at serial time points”) [3] was “superior metabolic and therapeutic phenotype”, the “cytokine synthesis when restimulated after expansion” value (T cells [4]; cells cultured with DCA for 7 days, then low or high nutrient conditions for 14 hours, FIG. 15B-15C) was “more proficient at synthesizing cytokines” and the “resistance to stress in low nutrient conditions” value (T cells [4]; low nutrient: 1 mM glucose+0 mM pyruvate, 14 hours) was “more resistant to stress”. The “OCR at serial time points” value ([5]; 5 mM DCA relative to TIL control) was “superior metabolic phenotype”, the “OCR at serial time points” value ([5]; 10 mM DCA relative to TIL control) was “superior metabolic phenotype” and the “mitochondrial mass (MitoTracker FM)” value (T cells [6]) was “increased”. The “OCR after sequential injection of FCCP and 2DG” value (T cells [7]; T cells expanded in 5 mM DCA vs control cells, FIG. 4A) was “OCR increased”, the “increase in OCR over baseline” value (T cells [7]; T cells expanded in 5 mM DCA, FIG. 4B) was “at least 30%” and the “increase in ECAR over baseline” value (T cells [7]; T cells expanded in 5 mM DCA, FIG. 4C) was “at least 10 mpH/min”.
